Patent US12234221B2, “Pyridine carboxamide compounds for inhibiting NAV1.8” (Lieber Institute, Inc., priority 2018, dated 2025)

Biological target: T1, human Nav1.8 (hNav1.8) ion channel (Homo sapiens, UniProt Q9Y5Y9)
T1 construct: expressed in transfected cells; host or cells: HEK293
Experiment: Nav1.8 channel inhibition, estimated IC50 (one or more of: fluorescence inhibition assay, PatchXpress, IonFlux HT automated patch clamp)
Assay type: cell-based
Conditions: HEK293 cells stably expressing hNav1.8; method used per compound not stated; read-out: Activity range (estimated IC50)
In short: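 HEK293 cells stably expressing hNav1.8 with β1/β2 subunits; IC50 from the fluorescence assay and/or automated whole-cell patch clamp (PatchXpress, IonFlux HT). Fluorescence: ANG-2 Na dye, 5 min compound preincubation (0.02–5 μM, 1% DMSO) with 30 μM ouabain, stimulation by 10 μM deltamethrin, peak signal fit logistically. PatchXpress: holding potential reset to Vhalf, inhibition normalized to control/washout currents.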

T1 sequence (Q9Y5Y9 whole entry): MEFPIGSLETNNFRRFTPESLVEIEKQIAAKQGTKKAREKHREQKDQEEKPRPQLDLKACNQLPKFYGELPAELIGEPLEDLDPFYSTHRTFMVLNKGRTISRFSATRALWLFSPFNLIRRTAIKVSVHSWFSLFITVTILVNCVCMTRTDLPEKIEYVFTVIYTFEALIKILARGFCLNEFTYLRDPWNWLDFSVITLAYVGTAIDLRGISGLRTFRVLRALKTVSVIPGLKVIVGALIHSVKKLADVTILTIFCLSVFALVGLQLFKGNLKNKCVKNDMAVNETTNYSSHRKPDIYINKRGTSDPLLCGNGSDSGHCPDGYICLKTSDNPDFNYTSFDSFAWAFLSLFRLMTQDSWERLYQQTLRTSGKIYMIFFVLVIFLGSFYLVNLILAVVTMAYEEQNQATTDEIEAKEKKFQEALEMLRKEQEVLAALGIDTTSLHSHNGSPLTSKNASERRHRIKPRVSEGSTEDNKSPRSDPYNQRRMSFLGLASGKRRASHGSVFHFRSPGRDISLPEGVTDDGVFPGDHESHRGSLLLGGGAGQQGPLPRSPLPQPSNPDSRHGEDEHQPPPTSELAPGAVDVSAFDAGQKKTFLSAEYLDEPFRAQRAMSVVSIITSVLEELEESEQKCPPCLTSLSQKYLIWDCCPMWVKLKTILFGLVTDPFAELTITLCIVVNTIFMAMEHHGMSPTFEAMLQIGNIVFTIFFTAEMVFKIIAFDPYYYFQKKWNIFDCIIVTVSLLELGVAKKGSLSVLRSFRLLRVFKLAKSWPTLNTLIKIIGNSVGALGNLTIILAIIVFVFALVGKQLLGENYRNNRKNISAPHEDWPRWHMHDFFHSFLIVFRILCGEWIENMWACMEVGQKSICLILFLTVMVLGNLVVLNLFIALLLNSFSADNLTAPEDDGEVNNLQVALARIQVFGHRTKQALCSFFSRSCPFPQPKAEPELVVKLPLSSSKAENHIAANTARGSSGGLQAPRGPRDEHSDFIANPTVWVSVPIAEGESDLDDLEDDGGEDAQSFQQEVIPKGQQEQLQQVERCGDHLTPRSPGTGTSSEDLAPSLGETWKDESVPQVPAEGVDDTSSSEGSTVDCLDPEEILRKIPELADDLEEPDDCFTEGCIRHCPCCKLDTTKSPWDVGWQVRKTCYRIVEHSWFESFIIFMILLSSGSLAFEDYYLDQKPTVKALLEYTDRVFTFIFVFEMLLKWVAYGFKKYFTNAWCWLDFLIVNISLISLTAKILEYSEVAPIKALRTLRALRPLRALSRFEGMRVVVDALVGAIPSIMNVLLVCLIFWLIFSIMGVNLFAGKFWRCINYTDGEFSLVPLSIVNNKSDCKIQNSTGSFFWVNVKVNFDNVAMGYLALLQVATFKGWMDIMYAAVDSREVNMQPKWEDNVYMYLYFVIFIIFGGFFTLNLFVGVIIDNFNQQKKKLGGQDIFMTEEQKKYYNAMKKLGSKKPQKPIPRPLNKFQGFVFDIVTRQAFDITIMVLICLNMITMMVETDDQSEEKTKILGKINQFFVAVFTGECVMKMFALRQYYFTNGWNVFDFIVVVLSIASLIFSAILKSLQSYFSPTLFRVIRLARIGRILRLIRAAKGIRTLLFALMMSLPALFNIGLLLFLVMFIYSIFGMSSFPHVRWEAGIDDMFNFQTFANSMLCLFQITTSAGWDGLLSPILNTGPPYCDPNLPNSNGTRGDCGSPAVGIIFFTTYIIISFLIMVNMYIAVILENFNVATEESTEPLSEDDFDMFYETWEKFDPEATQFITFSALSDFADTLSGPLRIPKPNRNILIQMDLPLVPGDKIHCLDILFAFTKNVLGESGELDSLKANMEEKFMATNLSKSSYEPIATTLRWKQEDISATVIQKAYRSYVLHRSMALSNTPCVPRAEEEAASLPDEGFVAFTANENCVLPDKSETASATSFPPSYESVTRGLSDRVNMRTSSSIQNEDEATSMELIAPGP

IC50 [µM] | SMILES
< 0.5 | CN=S(C)(=O)c1cccc(NC(=O)c2cc(C(F)(F)F)cnc2Oc2ccc(F)cc2OC)c1 (stereo not shown) [Example 16, N-[3-(N,S-dimethylsulfonimidoyl)phenyl]-2-(4-fluoro-2-methoxy-phenoxy)-5-(trifluoromethyl)pyridine-3-carboxamide]
> 1 | O=C(Nc1ccnnc1)c1cnc(C(F)(F)F)cc1Oc1ccc(OC(F)F)cc1 [Example 97, 4-[4-(difluoromethoxy)phenoxy]-N-pyridazin-4-yl-6-(trifluoromethyl)pyridine-3-carboxamide]
> 1 | CC(C)Oc1ccccc1Oc1ncc(C(F)(F)F)cc1C(=O)Nc1cccc(S(C)(=O)=O)c1 [Example 27, 2-(2-isopropoxyphenoxy)-N-(3-methylsulfonylphenyl)-5-(trifluoromethyl)pyridine-3-carboxamide]
< 0.5 | CN=S(C)(=O)c1cccc(NC(=O)c2cnc(C(F)(F)F)cc2Oc2ccc(OC(F)(F)F)cc2)c1 (stereo not shown) [Example 92, N-[3-(N,S-dimethylsulfonimidoyl)phenyl]-4-[4-(trifluoromethoxy)phenoxy]-6-(trifluoromethyl)pyridine-3-carboxamide]
< 0.5 | O=C(Nc1ccncc1)c1cc(C(F)(F)F)cnc1Oc1ccc(OC(F)(F)F)cc1 [Example 127, N-(4-pyridyl)-2-[4-(trifluoromethoxy)phenoxy]-5-(trifluoromethyl)pyridine-3-carboxamide]
> 1 | COc1cc(F)ccc1Oc1ncc(C2CC2)cc1C(=O)Nc1cccc(S(C)(=O)=O)c1 [Example 112, 5-cyclopropyl-2-(4-fluoro-2-methoxy-phenoxy)-N-(3-methylsulfonylphenyl)pyridine-3-carboxamide]
< 0.5 | COc1cc(F)ccc1Oc1nc2c(cc1C(=O)Nc1cccc(S(C)(=O)=O)c1)CCC2 [Example 120, 2-(4-fluoro-2-methoxy-phenoxy)-N-(3-methylsulfonylphenyl)-6,7-dihydro-5H-cyclopenta[b]pyridine-3-carboxamide]
0.5 to 1 | Cn1nccc1NC(=O)c1cc(C(F)(F)F)cnc1Oc1ccc(OC(F)(F)F)cc1Cl [Example 167, 2-[2-chloro-4-(trifluoromethoxy)phenoxy]-N-(2-methylpyrazol-3-yl)-5-(trifluoromethyl)pyridine-3-carboxamide]
< 0.5 | CS(=O)(=O)c1cccc(NC(=O)c2cc(C(F)(F)F)cnc2Oc2ccc(F)cc2F)c1 [Example 48, 2-(2,4-difluorophenoxy)-N-(3-methylsulfonyl-phenyl)-5-(trifluoromethyl)pyridine-3-carboxamide]
< 0.5 | CS(=O)(=O)c1cccc(NC(=O)c2cc(C(F)(F)F)cnc2Oc2ccc(OC(F)F)cc2)c1 [Example 39, 2-[4-(difluoromethoxy)phenoxy]-N-(3-methylsulfonyl-phenyl)-5-(trifluoromethyl)pyridine-3-carboxamide]
< 0.5 | CS(=O)(=O)c1cccc(NC(=O)c2cc(C(F)(F)F)cnc2Oc2ccc(SC(F)(F)F)cc2)c1 [Example 51, N-(3-methylsulfonyl-phenyl)-5-(trifluoromethyl)-2-[4-(trifluoromethyl-sulfanyl)phenoxy]pyridine-3-carboxamide]
< 0.5 | CS(=N)(=O)c1cccc(NC(=O)c2cc(C(F)(F)F)cnc2Oc2ccc(OC(F)(F)F)cc2)c1 (single isomer, unassigned) [Example 131, N-[3-(methylsulfonimidoyl)phenyl]-2-[4-(trifluoromethoxy)phenoxy]-5-(trifluoromethyl)pyridine-3-carboxamide]
> 1 | COc1cc(F)ccc1Oc1ncc(C(F)(F)F)cc1C(=O)Nc1cccc(N=S(C)(C)=O)c1 [Example 20, N-[3-[[dimethyl(oxo)-λ^6-sulfanylidene]amino]phenyl]-2-(4-fluoro-2-methoxy-phenoxy)-5-(trifluoromethyl)pyridine-3-carboxamide]
0.5 to 1 | CCS(=O)(=O)c1cccc(NC(=O)c2cc(C(F)(F)F)cnc2Oc2ccc(OC(F)(F)F)cc2Cl)c1 [Example 143, 2-[2-chloro-4-(trifluoromethoxy)phenoxy]-N-(3-ethylsulfonylphenyl)-5-(trifluoromethyl)pyridine-3-carboxamide]
< 0.5 | COc1ccc(Oc2ncc(C(F)(F)F)cc2C(=O)Nc2ccc[n+]([O-])c2)c(OC)c1 [Example 137, 3-(2-(2,4-dimethoxyphenoxy)-5-(trifluoromethyl)nicotinamido)pyridine 1-oxide]
> 1 | COc1cc(F)ccc1Oc1ncc(C(F)(F)F)cc1C(=O)Nc1cccc(N2CCOCC2)c1 [Example 2, 2-(4-fluoro-2-methoxy-phenoxy)-N-(3-morpholinophenyl)-5-(trifluoromethyl)pyridine-3-carboxamide]
0.5 to 1 | COc1cc(F)ccc1Oc1ncc(C(F)(F)F)cc1C(=O)Nc1ccnnc1 [Example 19, 2-(4-fluoro-2-methoxy-phenoxy)-N-pyridazin-4-yl-5-(trifluoromethyl)pyridine-3-carboxamide]
< 0.5 | COc1cc(F)ccc1Oc1ncc(C(F)(F)F)cc1C(=O)Nc1cccc(S(C)(=N)=O)c1 (stereo not shown) [Example 14, 2-(4-fluoro-2-methoxy-phenoxy)-N-[3-(methylsulfonimidoyl)phenyl]-5-(trifluoromethyl)pyridine-3-carboxamide]
< 0.5 | COc1cc(F)ccc1Oc1ncc(C(F)(F)F)cc1C(=O)Nc1cccc([S+](C)[O-])c1 (stereo not shown) [Example 8, 2-(4-fluoro-2-methoxy-phenoxy)-N-(3-methylsulfinylphenyl)-5-(trifluoromethyl)pyridine-3-carboxamide]
< 0.5 | COc1cc(F)ccc1Oc1ncc(C(F)(F)F)cc1C(=O)Nc1cccc(C#N)c1 [Example 3, N-(3-cyanophenyl)-2-(4-fluoro-2-methoxy-phenoxy)-5-(trifluoromethyl)pyridine-3-carboxamide]

Continued, compound first:

SMILES | IC50 [µM]
O=C(Nc1cccnc1)c1cnc(C(F)(F)F)cc1Oc1ccc(OC(F)(F)F)cc1Cl [Example 78, 4-[2-chloro-4-(trifluoromethoxy)phenoxy]-N-(3-pyridyl)-6-(trifluoromethyl)pyridine-3-carboxamide] | < 0.5
CN(C)c1cc(NC(=O)c2cnc(C(F)(F)F)cc2Oc2ccc(OC(F)(F)F)cc2Cl)ccn1 [Example 73, 4-[2-chloro-4-(trifluoromethoxy)phenoxy]-N-[2-(dimethylamino)-4-pyridyl]-6-(trifluoromethyl)pyridine-3-carboxamide] | > 1
COc1ccc(Oc2ncc(C(F)(F)F)cc2C(=O)Nc2cccc(S(C)(=O)=O)c2)c(Cl)c1 [Example 23, 2-(2-chloro-4-methoxy-phenoxy)-N-(3-methylsulfonylphenyl)-5-(trifluoromethyl)pyridine-3-carboxamide] | < 0.5
O=C(Nc1cncnc1)c1cc(C(F)(F)F)cnc1Oc1ccc(OC(F)(F)F)cc1Cl [Example 157, 2-[2-chloro-4-(trifluoromethoxy)phenoxy]-N-pyrimidin-5-yl-5-(trifluoromethyl)pyridine-3-carboxamide] | 0.5 to 1
CN=S(C)(=O)c1cccc(NC(=O)c2cc(C(F)(F)F)cnc2Oc2ccc(F)cc2C)c1 (stereo not shown) [Example 114, N-[3-(N,S-dimethylsulfonimidoyl)phenyl]-2-(4-fluoro-2-methyl-phenoxy)-5-(trifluoromethyl)pyridine-3-carboxamide] | < 0.5
NC(=O)c1cccc(NC(=O)c2cc(C(F)(F)F)cnc2Oc2ccc(OC(F)(F)F)cc2Cl)c1 [Example 148, N-(3-carbamoylphenyl)-2-[2-chloro-4-(trifluoromethoxy)phenoxy]-5-(trifluoromethyl)pyridine-3-carboxamide] | 0.5 to 1
N#Cc1cccc(NC(=O)c2cc(C(F)(F)F)cnc2Oc2ccc(OC(F)(F)F)cc2Cl)c1 [Example 146, 2-[2-chloro-4-(trifluoromethoxy)phenoxy]-N-(3-cyanophenyl)-5-(trifluoromethyl)pyridine-3-carboxamide] | < 0.5
COc1ccc(Oc2ncc(C(F)(F)F)cc2C(=O)Nc2cccc(S(C)(=N)=O)c2)c(Cl)c1 (stereo not shown) [Example 61, 2-(2-chloro-4-methoxy-phenoxy)-N-[3-(methylsulfonimidoyl)phenyl]-5-(trifluoromethyl)pyridine-3-carboxamide] | < 0.5
CN(C)C(=O)c1cccc(NC(=O)c2cc(C(F)(F)F)cnc2Oc2ccc(OC(F)(F)F)cc2Cl)c1 [Example 151, 2-[2-chloro-4-(trifluoromethoxy)phenoxy]-N-[3-(dimethylcarbamoyl)phenyl]-5-(trifluoromethyl)pyridine-3-carboxamide] | < 0.5
CS(=O)(=O)c1cccc(NC(=O)c2cc(C(F)(F)F)cnc2Oc2cc(Cl)cc(Cl)c2)c1 [Example 56, 2-(3,5-dichlorophenoxy)-N-(3-methylsulfonyl-phenyl)-5-(trifluoromethyl)pyridine-3-carboxamide] | > 1
COc1cc(F)ccc1Oc1nc(OC)c(F)cc1C(=O)Nc1cccc(S(C)(=O)=O)c1 [Example 178, 5-fluoro-2-(4-fluoro-2-methoxy-phenoxy)-6-methoxy-N-(3-methylsulfonylphenyl)pyridine-3-carboxamide] | < 0.5
COc1cc(F)ccc1Oc1ncc(C(F)(F)F)cc1C(=O)Nc1nc2ccccc2s1 [Example 11, N-(1,3-benzothiazol-2-yl)-2-(4-fluoro-2-methoxy-phenoxy)-5-(trifluoromethyl)pyridine-3-carboxamide] | > 1
CS(=O)(=O)c1cccc(NC(=O)c2cc(Cl)cnc2Oc2ccc(OC(F)(F)F)cc2)c1 [Example 181, 5-chloro-N-(3-methylsulfonylphenyl)-2-[4-(trifluoromethoxy)phenoxy]pyridine-3-carboxamide] | < 0.5
O=C(Nc1ccc[n+]([O-])c1)c1cc(C(F)(F)F)cnc1Oc1ccc(OC(F)(F)F)cc1 [Example 132, N-(1-oxidopyridin-1-ium-3-yl)-2-[4-(trifluoromethoxy)phenoxy]-5-(trifluoromethyl)pyridine-3-carboxamide] | < 0.5
